Source: ChEMBL document CHEMBL4828718, “Synthesis and Antifungal Activity Evaluation of Phloeodictine Analogues” (J Nat Prod, 2021)
In brackets after ≈: the same amount, converted by molar mass. Activity calls are given as the source filed them. The calls are words filed in the database; no cut-off is given here.

What was measured:
[1] = test system: Pichia kudriavzevii; experiment: Antifungal activity against Candida krusei ATCC 6258 assessed as fungal growth inhibition incubated for 18 to 24 hrs by alamar blue assay; assay type: functional
[2] = test system: Aspergillus fumigatus; experiment: Fungicidal activity against Aspergillus fumigatus ATCC 90906 assessed as fungal growth inhibition incubated for 72 hrs by alamar blue assay; assay type: functional
[3] = test system: Cryptococcus neoformans; experiment: Antifungal activity against Cryptococcus neoformans ATCC 90113 assessed as fungal growth inhibition incubated for 72 hrs by alamar blue assay; assay type: functional
[4] = test system: Vero; experiment: Cytotoxicity against African green monkey Vero cells assessed as reduction in cell viability incubated for 48 hrs by neutral red dye based assay; design: species or system Chlorocebus sabaeus; conditions: Chlorocebus sabaeus, Vero, 48 h
[5] = test system: Aspergillus fumigatus; experiment: Antifungal activity against Aspergillus fumigatus ATCC 90906 assessed as fungal growth inhibition incubated for 72 hrs by alamar blue assay; assay type: functional
[6] = test system: Cryptococcus neoformans; experiment: Fungicidal activity against Cryptococcus neoformans ATCC 90113 assessed as fungal growth inhibition incubated for 72 hrs by alamar blue assay; assay type: functional
[7] = test system: Candida albicans; experiment: Fungicidal activity against Candida albicans ATCC 90028 assessed as fungal growth inhibition incubated for 18 to 24 hrs by alamar blue assay; assay type: functional
[8] = test system: Pichia kudriavzevii; experiment: Fungicidal activity against Candida krusei ATCC 6258 assessed as fungal growth inhibition incubated for 18 to 24 hrs by alamar blue assay; assay type: functional
[9] = test system: Nakaseomyces glabratus; experiment: Antifungal activity against Candida glabrata ATCC 90030 assessed as fungal growth inhibition incubated for 18 to 24 hrs by alamar blue assay; assay type: functional
[10] = test system: Nakaseomyces glabratus; experiment: Fungicidal activity against Candida glabrata ATCC 90030 assessed as fungal growth inhibition incubated for 18 to 24 hrs by alamar blue assay; assay type: functional
[11] = test system: Candida albicans; experiment: Antifungal activity against Candida albicans ATCC 90028 assessed as fungal growth inhibition incubated for 18 to 24 hrs by alamar blue assay; assay type: functional
[12] = Pichia kudriavzevii, ATCC 6258, time 18-24 hrs, read-out: MIC
[13] = Aspergillus fumigatus, ATCC 90906, 72 h, read-out: MFC
[14] = Cryptococcus neoformans, ATCC 90113, 72 h, read-out: MIC
[15] = Aspergillus fumigatus, ATCC 90906, 72 h, read-out: MIC
[16] = Cryptococcus neoformans, ATCC 90113, 72 h, read-out: MFC
[17] = Candida albicans, ATCC 90028, time 18-24 hrs, read-out: MFC
[18] = Pichia kudriavzevii, ATCC 6258, time 18-24 hrs, read-out: MFC
[19] = Nakaseomyces glabratus, ATCC 90030, time 18-24 hrs, read-out: MIC
[20] = Nakaseomyces glabratus, ATCC 90030, time 18-24 hrs, read-out: MFC
[21] = Candida albicans, ATCC 90028, time 18-24 hrs, read-out: MIC

Row | MIC [1, 12] | MIC [3, 14] | MIC [5, 15] | MIC [9, 19] | MIC [11, 21] | SMILES | IC50 [4] | MFC [2, 13] | MFC [6, 16] | MFC [7, 17] | MFC [8, 18] | MFC [10, 20] | also measured
1 | 2.1 µM | 1.5 µM | 5.2 µM | 5.2 µM | 5.2 µM | C#CC[N+]1=C2C(C)=C(C)C(O)(CCCCCCCCCCCCCC)N2CCC1 (stereo not drawn) | 35 µM | 5.2 µM | 2.3 µM | 5.2 µM | 2.1 µM | 5.2 µM | –
2 | 13 µM | 6.4 µM | 35 µM | 13 µM | 4.3 µM | CCCCCCCCCCCCCCC1(O)c2ccccc2C2=[N+](C)CCCN21 (stereo not drawn) | 42 µM | 35 µM | 6.4 µM | 4.3 µM | 13 µM | 16 µM | –
3 | 5.5 µM | 1.9 µM | 9.4 µM | 6.2 µM | 9.4 µM | CCCCCCCCCCCCCCC1(O)C(C)=C(C)C2=[N+](CC(=O)OCC)CCCN21 (stereo not drawn) | 44 µM | 9.4 µM | 2.8 µM | 17 µM | 5.5 µM | 11 µM | –
4 | 2.1 µM | 1.1 µM | 3 µM | 2.1 µM | 3 µM | CCCCCCCCCCCCCCC1(O)C(C)=C(C)C2=[N+](Cc3cccc(OC)c3)CCCN21 (stereo not drawn) | 24 µM | 3 µM | 1.1 µM | 3 µM | 3 µM | 2.1 µM | –
5 | 12 µM (≈ 4.18 µg/mL) | 2.9 µM (≈ 1.01 µg/mL) | 19 µM (≈ 6.62 µg/mL) | 11 µM (≈ 3.83 µg/mL) | 24 µM (≈ 8.37 µg/mL) | CCCCCCCCCCCCCCc1c(C)c(C)cn1CCCN | 44 µM | 19 µM (≈ 6.62 µg/mL) | 2.9 µM (≈ 1.01 µg/mL) | 24 µM (≈ 8.37 µg/mL) | 12 µM (≈ 4.18 µg/mL) | 12 µM (≈ 4.18 µg/mL) | –
6 | 2 µM | 0.99 µM | 5 µM | 4.2 µM | 5 µM | CCCCCCCCCCCCCCC1(O)C(C)=C(C)C2=[N+](C)CCCN21 (stereo not drawn) | 39 µM | 5 µM | 2.4 µM | 6.5 µM | 2 µM | 5 µM | –

Second part, the molecule before the results:

Row | SMILES | MIC [1, 12] | MIC [3, 14] | MIC [5, 15] | MIC [9, 19] | MIC [11, 21] | IC50 [4] | MFC [2, 13] | MFC [6, 16] | MFC [7, 17] | MFC [8, 18] | MFC [10, 20] | also measured
7 | CCCCCCCCCCCCCCc1c(C)c(C)cn1CCCNCc1ccccc1 | – | – | – | – | – | 42 µM | – | – | – | – | – | MIC ([1]; time 18-24 hrs): inactive; MFC [2]: inactive; MIC [3]: inactive; MIC [5]: inactive; MFC [6]: inactive; MFC ([7]; time 18-24 hrs): inactive; MFC ([8]; time 18-24 hrs): inactive; MIC ([9]; time 18-24 hrs): inactive; MFC ([10]; time 18-24 hrs): inactive; MIC ([11]; time 18-24 hrs): inactive
8 | CCCCCCCCCCCCCCC1(O)C(C)=C(C)C2=[N+](Cc3cccc(C(F)(F)F)c3)CCCN21 (stereo not drawn) | 2.8 µM | 1.3 µM | 4.2 µM | 2 µM | 4.2 µM | 27 µM | 6.3 µM | 1.7 µM | 4.2 µM | 2.8 µM | 2 µM | –
9 | CCCCCCCCCCCCCCC1(O)C(C)=C(C)C2=[N+](Cc3ccc([N+](=O)[O-])cc3)CCCN21 (stereo not drawn) | 1.7 µM | 1.4 µM | 5 µM | 2.1 µM | 4.3 µM | 36 µM | 5 µM | 1.4 µM | 4.3 µM | 1.7 µM | 2.1 µM | –
10 | CCCCCCCCCCCCCCC1(O)C(C)=C(C)C2=[N+](Cc3cc(OC)c(OC)c(OC)c3)CCCN21 (stereo not drawn) | 1.9 µM | 1.6 µM | 4 µM | 4 µM | 5.3 µM | > 40 µM | 4 µM | 1.6 µM | 5.3 µM | 1.9 µM | 4 µM | –
11 | CCCCCCCCCCCCCCC1(O)C(C)=C(C)C2=[N+](Cc3cc(C(F)(F)F)cc(C(F)(F)F)c3)CCCN21 (stereo not drawn) | 3.7 µM | 1.8 µM | – | 2.5 µM | 30 µM | > 37 µM | – | 2.5 µM | – | 3.7 µM | 2.5 µM | MFC [2]: inactive; MIC [5]: inactive; MFC ([7]; time 18-24 hrs): inactive
12 | CCCCCCCCCCCCCCC1(O)C(C)=C(C)C2=[N+](Cc3ccc(OC)cc3)CCCN21 (stereo not drawn) | 1.8 µM | 1.1 µM | 3.7 µM | 3 µM | 3.7 µM | 24 µM | 5.1 µM | 1.4 µM | 3.7 µM | 2.7 µM | 3 µM | –
13 | CCCCCCCCCCCCCCC1(O)C(C)=C(C)C2=[N+](C/C=C/c3ccccc3)CCCN21 (stereo not drawn) | 3 µM | 1.4 µM | 4.5 µM | 2.7 µM | 3.8 µM | 38 µM | 5.9 µM | 4.1 µM | 3.8 µM | 3.8 µM | 4.1 µM | –
